The data set in a line: Solubility in the solvent of a naphthacene compound with para-bonded aromatic substituents. The class given is physicochemical. Conditions: solvent not specified (aromatic, halogen type or ether type solvent).

In turn, `c1ccc(-c2ccc(-c3c4ccccc4c(-c4ccc(-c5ccccc5)cc4-c4ccccc4)c4cc5ccccc5cc34)c(-c3ccccc3)c2)cc1` gave a solubility of no more than 0.1 wt %.

The record behind these values is US20080111109A1, “ORGANIC-ELECTROLUMINESCENCE-MATERIAL-CONTAINING SOLUTION, METHOD FOR FORMING THIN FILM OF ORGANIC ELECTROLUMINESCENCE MATERIAL, THIN FILM OF ORGANIC ELECTROLUMINESCENCE MATERIAL AND ORGANIC ELECTROLUMINESCENCE DEVICE” (Idemitsu Kosan Co., Ltd., priority 2006, published 2008).
